Source: PubChem BioAssay AID1919013 (Molecular Pharmacology Branch, DTP, NCI, 2023)
“And” between values parts separate entries of the source, which are not always exact repeats. Equal values may be shown once.

Tested on: LG0703-F498-PDC complex spheroid growth
Assay: Anticancer human tumor LG0703-F498-PDC patient-derived lung adenocarcinoma cell line growth inhibition [AhR]
Details: for viability, T/C: stronger effect = lower value
From the text: Multicellular complex tumor spheroid response to aryl hydrocarbon receptor antagonists in combination with a variety of drugs and investigational agents in selected tumor cell lines
The current study was undertaken to assess response to aryl hydrocarbon receptor antagonists in combination with standard-of-care drugs and investigational agents in solid tumor complex spheroid models. Complex spheroids include a stromal component modeled by human endothelial cells (HUVEC) and fibroblasts modeled by human mesenchymal stem cells (MSCs). The concentration ranges selected for each drug and investigational agent were based upon clinically achievable concentrations if the clinical Cmax of the agent was known.
Compounds. The drugs and investigational agents: BAY 2416964 (NSC825713), GNF351 (NSC835774), CH-223191 (NSC835775), CPI-455 (NSC825282), aza-TdCyd (NSC777586), decitabine (NSC127716), belinostat (NSC758774), entinostat (NSC756642), pevonedistat (NSC761192), tazemetostat (NSC777109), talazoparib (NSC765396), olaparib (NSC753686), selinexor (NSC780203), nedisertib (M3814, NSC802822), bortezomib (NSC756655), venetoclax (NSC766270), doxorubicin (NSC123127), elimusertib (BAY189344, NSC800525), ceralasertib (AZD6738, NSC777638), TAK-243 (NSC785004), alisertib (NSC759677), etoposide (NSC141540), topotecan (NSC609699), eribulin (NSC707389), gemcitabine (NSC613327), carboplatin (NSC241240), cisplatin (NSC119875), and SN-38 (NSC673596) were obtained from the National Cancer Institute (NCI) Developmental Therapeutics Program Chemical Repository (32). The FDA-approved anticancer drug set is available from the Developmental Therapeutics Program at https://dtp.cancer.gov/organization/dscb/obtaining/available plates.htm. […] The stock solutions were prepared in dimethyl sulfoxide (DMSO, Sigma-Aldrich, St. Louis, MO, cat. D2650), except for the platinum compounds which were prepared in saline (Quality Biological, Gaithersburg, MD, cat. 114-055-101), at 800-fold the tested concentration and stored at -70 degrees C prior to their use. All drugs and investigational agents were tested over a range starting from a high concentration at or near the clinical Cmax and decreasing in half-log increments. If the clinical Cmax for an agent had not been determined, the highest concentration tested was 10 microM (Table 1).
Cell Culture. All cells were maintained in an incubator at 37 degrees C and 5% CO2 with 95% humidity. The PDC lines were cultured according to standard operating procedures established by the NCI PDMR (https://pdmr.cancer.gov). Briefly, all PDCs were thawed and cultured in Matrigel-coated flasks prepared with a working solution of 1X Ham's F-12 nutrient mix, without supplementation (Invitrogen, Waltham, MA, cat. 11765054), 100 U/mL penicillin-streptomycin (Invitrogen, cat. 15140122), and 2.5% Matrigel (Corning Inc., Corning, NY, cat. 354248) for the first three passages. All PDCs were cultured in complete DMEM/F-12 media containing advanced DMEM/F-12 (Invitrogen, cat. 12634028), 4.9% defined fetal bovine serum, heat inactivated (HyClone Laboratories Inc., Logan, UT, cat. SH30070.03HI), 389 ng/mL hydrocortisone (Sigma-Aldrich, cat. H4001), 9.7 ng/mL human EGF recombinant protein (Invitrogen, cat. PHG0313), 23.4 microg/mL adenine (Sigma-Aldrich, cat. A2786), 97.3 U/mL penicillin-streptomycin (Invitrogen, cat. 15140122), 1.9 mM L-glutamine (Invitrogen, cat. 25030081), and 9.7 microM Y-27632 dihydrochloride (Tocris Bioscience, Bristol, United Kingdom, cat. 1254). The PDCs were cultured in complete DMEM/F12 media without 10 microM Y-27632 dihydrochloride for at least two passages prior to the screen. The established cell lines NCI-H1341 and […] were cultured in DMEM/F-12, HEPES (Invitrogen, cat. 11330032), 5% defined fetal bovine serum (HyClone Laboratories Inc., cat. SH30070.03), ITS premix universal culture supplement [insulin (5 microg/mL), transferrin (5 microg/mL), and selenious acid (5 ng/mL)] […]
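Further: luminescence taken as a proxy for viable cell amount.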
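Wherever viability, T/C is given: percent of DMSO vehicle control where 100% means growth equal to vehicle.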

CC1COCCN1c1cc(C2(S(C)(=N)=O)CC2)nc(-c2ccnc3[nH]ccc23)n1 (centres undefined)
viability, T/C (compound 0.0316 µM): 91% and 100% and 107%
viability, T/C (compound 0.1 µM): 108% and 96.2% and 104%
viability, T/C (compound 0.316 µM): 87.9% and 110% and 96.5%
viability, T/C (compound 1 µM): 97.9% and 98.4% and 97.6%
viability, T/C (compound 3.16 µM): 87.5% and 110% and 95.1%
viability, T/C (compound 10 µM): 65.4% and 71% and 64.8%
IC50 (curve of compound): > 10000 nM

NS(=O)(=O)OCC1CC(n2ccc3c(NC4CCc5ccccc54)ncnc32)CC1O (centres undefined) + Cc1cncc(-c2nc(NCCc3c[nH]c4ccccc34)c3ncn(C(C)C)c3n2)c1
IC50 (curve of first compound, second compound 0.1 µM): 3930 nM
IC50 (curve of first compound, second compound 0.316 µM): 2730 nM
IC50 (curve of first compound, second compound 1 µM): 2200 nM
IC50 (curve of first compound, second compound 3.16 µM): 725 nM
IC50 (curve of first compound, second compound 10 µM): < 31.6 nM
viability, T/C (second compound 0.1 µM, first compound 0.0316 µM): 105%
viability, T/C (second compound 0.1 µM, first compound 0.1 µM): 113%
viability, T/C (second compound 0.1 µM, first compound 0.316 µM): 66.7%
viability, T/C (second compound 0.1 µM, first compound 1 µM): 101%
viability, T/C (second compound 0.1 µM, first compound 3.16 µM): 44%
viability, T/C (second compound 0.1 µM, first compound 10 µM): 30.7%
viability, T/C (second compound 0.316 µM, first compound 0.0316 µM): 113%
viability, T/C (second compound 0.316 µM, first compound 0.1 µM): 97.3%
viability, T/C (second compound 0.316 µM, first compound 0.316 µM): 53.3%
viability, T/C (second compound 0.316 µM, first compound 1 µM): 97.2%
viability, T/C (second compound 0.316 µM, first compound 3.16 µM): 39.8%
viability, T/C (second compound 0.316 µM, first compound 10 µM): 28.9%
viability, T/C (second compound 1 µM, first compound 0.0316 µM): 111%
viability, T/C (second compound 1 µM, first compound 0.1 µM): 79.7%
viability, T/C (second compound 1 µM, first compound 0.316 µM): 54%
viability, T/C (second compound 1 µM, first compound 1 µM): 106%
viability, T/C (second compound 1 µM, first compound 3.16 µM): 32.6%
viability, T/C (second compound 1 µM, first compound 10 µM): 26.2%
viability, T/C (second compound 3.16 µM, first compound 0.0316 µM): 70.9%
viability, T/C (second compound 3.16 µM, first compound 0.1 µM): 70.1%
viability, T/C (second compound 3.16 µM, first compound 0.316 µM): 50%
viability, T/C (second compound 3.16 µM, first compound 1 µM): 55.4%
viability, T/C (second compound 3.16 µM, first compound 3.16 µM): 27.2%
viability, T/C (second compound 3.16 µM, first compound 10 µM): 16.9%
viability, T/C (second compound 10 µM, first compound 0.0316 µM): 2.35%
viability, T/C (second compound 10 µM, first compound 0.1 µM): 3.18%
viability, T/C (second compound 10 µM, first compound 0.316 µM): 6.94%
viability, T/C (second compound 10 µM, first compound 1 µM): 2.85%
viability, T/C (second compound 10 µM, first compound 3.16 µM): 6.79%
viability, T/C (second compound 10 µM, first compound 10 µM): 5.98%

Nc1ccn(C2OC(CO)C(O)C2(F)F)c(=O)n1 (centres undefined)
viability, T/C (compound 0.0316 µM): 38% and 42% and 41.4%
viability, T/C (compound 0.1 µM): 37.1% and 44.8% and 35.2%
viability, T/C (compound 0.316 µM): 35.5% and 47.5% and 34.7%
viability, T/C (compound 1 µM): 32.2% and 38.6% and 33.6%
viability, T/C (compound 3.16 µM): 26.9% and 34.3% and 30.5%
viability, T/C (compound 10 µM): 20.3% and 28.3% and 21.4%
IC50 (curve of compound): < 31.6 nM
